Data as given in patent US4330529A, “Antibacterial composition” (Fujisawa Pharmaceutical Co., Ltd., priority 1979, dated 1982).
Converted amounts (≈) assume the structure as drawn. Where two headings read alike, the source gives them in different places.

Assays:
[1] = system: Staphylococcus epidermidis 1601-1; assay: MIC and FIC, Nutrient agar (Tests 2, 3); type: cell-based; settings: 16011, S. epidermidis 1601-1, 20 h
Experimental: (§1) After the incubation was carried out at 37° C. for 20 hours, MIC values were determined.

[2] = system: Klebsiella pneumoniae NCTC 418; assay: MIC and FIC, Nutrient agar (Tests 2, 3); type: cell-based; settings: NCTC418, K. pneumoniae NCTC 418, 20 h
Experimental: as §1

[3] = system: Shigella flexneri Ia EW-8; assay: MIC and FIC, Nutrient agar (Test 2); type: cell-based; settings: IAEW8, S. flexneri Ia EW-8, 20 h
Experimental: as §1

[4] = system: Salmonella enteritidis 1891; assay: MIC and FIC, Nutrient agar (Test 2); type: cell-based; settings: Salmonella enterica; S. enteritidis 1891; 20 h
Experimental: as §1

[5] = system: Salmonella typhimurium 1406; assay: MIC and FIC, Nutrient agar (Tests 2, 3); type: cell-based; settings: Salmonella enterica, TYPHIMURIUM, 20 h
[6] = system: Salmonella paratyphi A-1015; assay: MIC and FIC, Nutrient agar (Test 2); type: cell-based; settings: Salmonella enterica; S. paratyphi A-1015; 20 h
Experimental: as §1
(§2) FIC values and FIC Index were calculated in substantially the same manner as described in Test 1.

[7] = system: Serratia marcescens 1421-4; assay: MIC and FIC, Nutrient agar (Tests 2, 3); type: cell-based; settings: Serratia marcescens, 14214, 20 h
[8] = system: Enterobacter aerogenes 1402-10; assay: MIC and FIC, Nutrient agar (Tests 2, 3); type: cell-based; settings: Klebsiella aerogenes, 140210, 20 h
[9] = system: Enterobacter cloacae 1401-4; assay: MIC and FIC, Nutrient agar (Tests 2, 3); type: cell-based; settings: E. cloacae 1401-4
[10] = system: Proteus mirabilis 1432-75; assay: MIC and FIC, Nutrient agar (Tests 2, 3); type: cell-based; settings: Proteus mirabilis, 143275, 20 h
[11] = system: Proteus vulgaris IAM-1025; assay: MIC and FIC, Nutrient agar (Test 2); type: cell-based; settings: IAM1025, P. vulgaris IAM-1025, 20 h
Experimental: as §1, §2

[12] = system: Proteus morganii 1433-2; assay: MIC and FIC, Nutrient agar (Tests 2, 3); type: cell-based; settings: Morganella morganii, 14332; P. morganii 1433-2; 20 h
Experimental: as §1

[13] = system: Escherichia coli 1341-18R^+; assay: MIC and FIC, Nutrient agar (Test 3); type: cell-based; settings: 20 h
[14] = system: Proteus rettgeri 1434-3; assay: MIC and FIC, Nutrient agar (Test 3); type: cell-based; settings: Providencia rettgeri, 14343; P. rettgeri 1434-3; 20 h
Experimental: as §1, §2

[15] = system: Pseudomonas aeruginosa 1101-76; assay: MIC and FIC, Nutrient agar (Test 3); type: cell-based; settings: Pseudomonas aeruginosa, 110176, 20 h
[16] = system: Pseudomonas aeruginosa No.5; assay: MIC and FIC, Nutrient agar, multiple inoculator (Tests 4, 5); type: cell-based; settings: Pseudomonas aeruginosa; P. aeruginosa No.5; 10^8 cells/ml, 20 h; read-out: MIC
Experimental: as §1

[17] = system: Pseudomonas aeruginosa No.7; assay: MIC and FIC, Nutrient agar, multiple inoculator (Test 4); type: cell-based; settings: P. aeruginosa No.7, 10^8 cells/ml, 20 h
Experimental: as §1, §2

[18] = system: Pseudomonas aeruginosa No.9; assay: as above; type: cell-based; settings: P. aeruginosa No.9, 10^8 cells/ml, 20 h
Experimental: as §1, §2

[19] = system: Pseudomonas aeruginosa No.15; assay: as above; type: cell-based; settings: P. aeruginosa No.15, 10^8 cells/ml, 20 h
Experimental: as §1, §2

[20] = system: Pseudomonas aeruginosa No.13; assay: MIC and FIC, Nutrient agar, multiple inoculator (Test 5); type: cell-based; settings: Pseudomonas aeruginosa; P. aeruginosa No.13; 10^8 cells/ml, 20 h; read-out: MIC
Experimental: as §1, §2

[21] = system: Citrobacter freundii 35; assay: MIC and FIC, Nutrient agar (Tests 6, 7, 9); type: cell-based
[22] = system: Serratia marcescens 9; assay: MIC and FIC, Nutrient agar (Test 6); type: cell-based; settings: Serratia marcescens; S. marcescens 9; 18 h; read-out: MIC
Experimental: as §2

[23] = system: Proteus vulgaris 5; assay: MIC and FIC, Nutrient agar (Test 6); type: cell-based; settings: Proteus vulgaris; P. vulgaris 5; 18 h; read-out: MIC
Experimental: as §2

[24] = system: Staphylococcus aureus 3; assay: MIC and FIC, Nutrient agar (Tests 6, 7); type: cell-based; settings: Staphylococcus aureus; S. aureus 3; 18 h; read-out: MIC
Experimental: as §2

[25] = system: Enterobacter aerogenes 25; assay: microbe, parasite or virus in culture; settings: Klebsiella aerogenes, 25, 18 h
[26] = system: Proteus mirabilis 48; assay: MIC and FIC, Nutrient agar (Test 7); type: cell-based; settings: P. mirabilis 48, 18 h
Experimental: as §2

[27] = system: Proteus vulgaris 7; assay: MIC and FIC, Nutrient agar (Tests 7, 9); type: cell-based; settings: P. vulgaris 7
[28] = system: Pseudomonas aeruginosa 77; assay: MIC and FIC, Nutrient agar (Test 7); type: cell-based; settings: P. aeruginosa 77, 18 h
Experimental: as §2

[29] = system: Staphylococcus aureus 2; assay: MIC and FIC, Nutrient agar (Test 7); type: cell-based; settings: S. aureus 2, 18 h
Experimental: as §2

[30] = system: Serratia marcescens 27; assay: MIC and FIC, Nutrient agar (Test 7); type: cell-based; settings: S. marcescens 27, 18 h
Experimental: as §2

[31] = system: Proteus mirabilis 5; assay: MIC and FIC, Nutrient agar (Test 7); type: cell-based; settings: P. mirabilis 5, 18 h
Experimental: as §2

[32] = system: Pseudomonas aeruginosa 42; assay: MIC and FIC, Nutrient agar (Test 7); type: cell-based; settings: Pseudomonas aeruginosa; P. aeruginosa 42; 18 h; read-out: MIC
Experimental: as §2

[33] = system: Staphylococcus aureus 1; assay: MIC and FIC, Nutrient agar (Test 7); type: cell-based; settings: S. aureus 1, 18 h
Experimental: as §2

[34] = system: Enterobacter cloacae 18; assay: MIC and FIC, Nutrient agar (Tests 7, 9); type: cell-based; settings: E. cloacae 18, 18 h
Experimental: as §2

[35] = system: Serratia marcescens 4; assay: MIC and FIC, Nutrient agar (Test 9); type: cell-based; settings: S. marcescens 4, 18 h
Experimental: as §2

[36] = system: Klebsiella pneumoniae 8; assay: Isobologram, growth in Nutrient broth in various combination ratios (Test 8); type: cell-based; parameters: key: +: the test microorganism grew; -: the test microorganism did not grow; settings: gentamicin sulfate 0
Experimental: After the incubation was carried out at 37° C. for 18 hours, the growth of the test organism was observed.

[37] = system: Escherichia coli 99; assay: MIC and FIC, Nutrient agar (Test 6); settings: Escherichia coli, 99, 18 h
Experimental: as §2

O=CN(O)CCCP(=O)(O)O [A (Table 2)]
MIC [1]: ≥ 400 µg/mL | MIC [2]: 25 µg/mL | MIC [3]: 1.56 µg/mL | MIC [4]: 0.78 µg/mL | MIC [5]: 6.25 µg/mL | MIC [6]: 6.25 µg/mL | MIC [7]: 50 µg/mL | MIC [8]: 6.25 µg/mL | MIC ([9]; 20 h, listed as A (Table 3)): 3.16 µg/mL | MIC ([9]; 20 h, listed as A (Table 4)): 3.13 µg/mL | MIC ([9]; Enterobacter cloacae, 14014, 20 h): 3.13 µg/mL | MIC [10]: 1.56 µg/mL | MIC [11]: 1.56 µg/mL | MIC [12]: ≥ 400 µg/mL | MIC [13]: 6.25 µg/mL | MIC [14]: 1.56 µg/mL | MIC [15]: 1.56 µg/mL | MIC [16]: 800 µg/mL | MIC [17]: 200 µg/mL | MIC [18]: > 800 µg/mL | MIC [19]: > 800 µg/mL | MIC [20]: 800 µg/mL | MIC ([21]; C. freundii 35, 18 h, listed as A (Table 9)): 100 µg/mL | MIC ([21]; C. freundii 35, 18 h, listed as A (Table 10)): 100 µg/mL | MIC ([21]; Citrobacter freundii, 35, 18 h): 50 µg/mL | MIC ([21]; Citrobacter freundii, 35, 18 h, C. freundii 35, 18 h): 100 µg/mL | MIC [22]: 200 µg/mL | MIC [23]: 25 µg/mL | MIC [24]: 400 µg/mL | MIC [25]: 100 µg/mL (≈ 546 µM) | MIC [26]: 25 µg/mL | MIC ([27]; 18 h, listed as A (Table 15)): 50 µg/mL | MIC ([27]; Proteus vulgaris, 7, 18 h): 25 µg/mL | MIC [28]: 6.25 µg/mL | MIC [29]: 200 µg/mL | MIC [30]: 400 µg/mL | MIC [31]: 25 µg/mL | MIC [32]: 50 µg/mL | MIC [33]: 400 µg/mL | MIC ([34]; listed as A (Table 14)): 100 µg/mL | MIC ([34]; Enterobacter cloacae, read-out: MIC): 200 µg/mL | MIC [35]: 50 µg/mL | growth of the test organism ([36]; phosphonic acid salt 0.78 mcg/ml): + | growth of the test organism ([36]; phosphonic acid salt 1.56 mcg/ml): + | growth of the test organism ([36]; phosphonic acid salt 3.13 mcg/ml): + | growth of the test organism ([36]; phosphonic acid salt 6.25 mcg/ml): + | growth of the test organism ([36]; phosphonic acid salt 12.5 mcg/ml): + | growth of the test organism ([36]; phosphonic acid salt 25 mcg/ml): - | MIC [37]: 25 µg/mL
